What was measured:
Format in all cases: cell-based, human
YB5 cells = assay: GFP reactivation in YB5 cells (flow cytometry)
Excerpt: To screen the compounds of the invention for epigenetic anti-cancer activity the YB5 cell-based system, which is derived from the human colon cancer cell line SW48, was used (Si et al., 2010, Cancer Res. 70:6968-6977; Raynal et al., 2012, Cancer Res. 72:1170-1181). YB5 cells contain a single insertion of cytomegalovirus (CMV) promoter driving green fluorescent protein (GFP) gene. GFP expression is silenced in >99.9% of YB5 cells by epigenetic mechanisms. In YB5 cells, the inserted GFP gene behaves similarly to endogenous tumor suppressor genes (TSGs) silenced by epigenetic mechanisms, and it can be reactivated by epigenetic anti-cancer agents such as DNA methylation inhibitors and/or HDAC inhibitors such as depsipeptide (Si et al., 2010, Cancer Res. 70:6968-6977; Raynal et al., 2012, Cancer Research, 72:1170-1181; Wu et al., 2008, Mol. Cell Biol, 28:3219-3235). Thus, reactivation of GFP expression and the resulting fluorescence is a measure of epigenetic anti-cancer activity.
The following procedure may be used to identify compounds of useful in the invention. YB5 cells cultured in L-15 medium supplemented with 10% fetal bovine serum and 1% P/S are treated for 24 hours with varying concentrations (50 nM, 100 nM, 500 nM, 1 μM, 5 μM, 10 μM, 25 μM, and 50 μM) of test compounds. After treatment, cells are trypsinized and re-suspended in cell culture media with propidium iodide (PI) to stain dead cells. Reactivation of GFP is measured using flow cytometry to identify the GFP positive population. The relative activities are expressed as the percent of the response compared to treatment with 20 nM HDACi depsipeptide for 24 hours. YB5 cells are grown in 1% CO2 atmosphere at 37° C.
NDL-3040 compound library consists of 3040 chemically diverse compounds that are semi-natural, derived from natural compounds, or synthetic compounds that are natural-compound-like. The small molecules were arrayed in 96-well plates as 10 mM stocks in 100% DMSO and were purchased from TimTec Inc. An aminothiazole analog library (93 small molecules) was also purchased from the same vendor and was in a 96-well plate format as 10 mM stocks in 100% DMSO. The 3040 compounds were screened at 25 μM for 24 hr. All plates were kept at −80° C. before use. YB5 cells growing in log phase (70-80% confluency) in 96-well plates were used. Each experimental 96-well plate contained 80 different compounds. Compounds were dispensed using an INTEGRA VIAFLO96 96-well pipette. After a 24 hr drug treatment, cells were trypsinized for 10 mins and re-suspended in L-15 medium containing propidium iodide (PI) to stain for dead cells. A total of 10000 cells per well were analyzed using Millipore Guava flow cytometer (EMD, Millipore). GFP positive percentage was calculated by excluding all the PI positive cells. After finishing the screening, the average Z-factor
For drug screening and dose response validations, GFP positive cells were detected by Millipore Guava flow cytometer (EMD, Millipore). Cell cycle analysis was performed using BD FACSCalibur™ by propidium iodide staining four days after drug treatment. Sub-G1 population percentage was also included to measure apoptotic cell proportion. Data were analyzed using FlowJo software version 10.2. For the cell differentiation analysis, cells were washed and stained with propidium iodide (PI), CD11 b (BD Biosciences, #562793) and the isotype control IgG (BD Biosciences, #555748). Flow cytometry analysis was performed on a Millipore Guava flow cytometer (EMD, Millipore). For the ID8 in vivo experiments, ascites was drained from 5-10 mice per group and incubated in ACK buffer (Thermo Fisher) to lyse red blood cells for 10 minutes, then washed. Ascites from each mouse was individually lysed and prepared for flow cytometry. Mononuclear cells collected were cultured for 4 hours in RPMI with 5% Fetal Bovine Serum and in the presence of Cell Stimulation Cocktail (plus protein transport inhibitors; eBioscience). […]

[1] = test system: cancer cell lines and normal IMR90 cells; assay: Anti-proliferation assay (trypan blue exclusion); conditions: four days after one-time exposure
Method: Cells were seeded in 96-well plates at 40% confluency in triplicates. Fresh medium was changed the next day and drugs were added directly. After mixing thoroughly, plates were cultured in a 37° C. incubator for two more days. Drug-free fresh medium was changed the fourth day. The cells were collected on day 5 by trypsin, suspended in medium, mixed with trypan blue (1:1 ratio), and counted using LUNA II automated cell counter. Each sample was counted at least three times and the average numbers were used for the analysis. Each treatment condition was performed at least in triplicates.

HL60 cell line = assay: HL60 cell differentiation (CD11b); conditions: four-day single-dose treatment
Method: For drug screening and dose response validations, GFP positive cells were detected by Millipore Guava flow cytometer (EMD, Millipore). Cell cycle analysis was performed using BD FACSCalibur™ by propidium iodide staining four days after drug treatment. Sub-G1 population percentage was also included to measure apoptotic cell proportion. Data were analyzed using FlowJo software version 10.2. For the cell differentiation analysis, cells were washed and stained with propidium iodide (PI), CD11 b (BD Biosciences, #562793) and the isotype control IgG (BD Biosciences, #555748). Flow cytometry analysis was performed on a Millipore Guava flow cytometer (EMD, Millipore). For the ID8 in vivo experiments, ascites was drained from 5-10 mice per group and incubated in ACK buffer (Thermo Fisher) to lyse red blood cells for 10 minutes, then washed. Ascites from each mouse was individually lysed and prepared for flow cytometry. Mononuclear cells collected were cultured for 4 hours in RPMI with 5% Fetal Bovine Serum and in the presence of Cell Stimulation Cocktail (plus protein transport inhibitors; eBioscience). […] Flow cytometry acquisition was performed on an LSRII cytometer (BD Biosciences) and data were analyzed using FlowJo software version 10.2.

`Nc1nc(N[C@H]2CC3CCC2C3)sc1C(=O)c1ccccc1[N+](=O)[O-]` (stereo partly drawn) [MC180295] was tested, and the “relative activity to Depsipeptide @ 500 nM %” value (YB5 cells; 500 nM) was 14.10%, the “relative activity to Depsipeptide @ 50 μM %” value (YB5 cells; 50 μM) was 23.32% and the Emax at 1 µM (YB5 cells; Homo sapiens, 24 h, read-out: relative activity to Depsipeptide @ 1 μM %) was 28.8%. It also gave an Emax at 5 µM (YB5 cells; Homo sapiens, 24 h, read-out: relative activity to Depsipeptide @ 5 μM %) of 65.4%, an Emax at 10 µM (YB5 cells; Homo sapiens, 24 h, read-out: relative activity to Depsipeptide @ 10 μM %) of 72.8% and an Emax at 25 µM (YB5 cells; Homo sapiens, 24 h, read-out: relative activity to Depsipeptide @ 25 μM %) of 73.3%. For the same molecule, the “GFP+ cells” value (YB5 cells; at 500 nM) was roughly 60%, the “reduction of proliferation, cancer cells vs normal cells (IMR90)” value [1] was “more effective in reducing proliferation of cancer cells than normal control cells” and the “differentiation marker CD11b” value (HL60 cell line) was “significant induction”.

— patent US10941126B2, “Bridged bicycloalkyl-substituted aminothiazoles and their methods of use” (Temple University—Of The Commonwealth System of Higher …, priority 2017, dated 2021)
